Data taken from patent publication US4195093A, “Furoyl- and thenoyl-aryloxyalkyl carboxylic acid derivatives, their preparation and their use in therapy” (Albert Rolland S.A., priority 1977, dated 1980).
Structures can show the parent of a compound that is named as a salt. Where two headings read alike, the source gives them in different places.

Tests used:
[1] = test system: phenol red in the blood; experiment: Uricosuric activity: retention of phenol red in the blood of rats; assay type: in vivo; conditions: Rattus norvegicus, read-out: Maximum Ratio measured (phenol red in blood, treated to non-treated)
Procedure: The uricosuric activity of the compounds has been shown by the method described by H. C. SCARBOROUGH and G. R. McKINNEY (J. Med. Pharm. Chem. (1962) 5 175) as well as by E. KREPPEL (Med. Exptl. (1959) 1 285); phenol red is administered intravenously to rats and the development of the concentration of this colourant in their blood is studied as a function of time. It is known that rats, which one hour before the beginning of the experiment have received an uricosuric agent, show, in comparison with non-treated animals, retention of phenol red in the blood.
The ratio is that of the concentrations of phenol red found in the blood of animals which have received the test compounds at the dose indicated at the specified time to the concentrations for non-treated animals.

[2] = Acute toxicity orally in mice (method of BLISS); conditions: mouse, in vivo
Procedure: The acute toxicity of the new compounds has been studied in mice orally, according to the method of BLISS (Quart. J. Pharm. Pharmacol. (1938) 2 192-216); with the exception of the compounds in Examples 3 and 13, which have an LD50 in the region of 700 mg/kg, all the other compounds have an LD50 above 1000 mg/kg.

[3] = Diuretic ability in mice (urine volume ratio treated/control); assay type: in vivo
Procedure: The diuretic ability of the novel compounds according to the invention has been studied in mice. It is expressed in Table III in the form of a ratio of the volume of urine for the treated animals received during 2 and 4 hours after administration (at the indicated dose) of the test compound to the volume measured under the same conditions for the control animals.

[4] = Solubility in aqueous medium (statement); assay type: physicochemical
[5] = 0.75 h, 45 minutes after injection of the colourant
[6] = 1 h, 60 minutes after injection of the colourant
[7] = 0.25 h, 15 minutes after injection of the colourant

In the case of O=C(O)COc1ccc(C(=O)c2cccs2)c2ccccc12 [Example 1, [4-(2-Thenoyl)-1-naphthyloxy]-acetic acid], the response vs control in vivo at 50 mg/kg [1, 5] is reported as 100% and the response vs control in vivo at 100 mg/kg [1, 6] is reported as 121%.

O=C(O)COc1ccc(C(=NO)c2cccs2)c2ccccc12 [Example 2, [4-(2-Thienyl-hydroxyiminomethyl)-1-naphthyloxy]-acetic acid] showed a response vs control in vivo at 100 mg/kg [1, 5] of 77%.

For O=C(O)COc1ccc(C(=O)c2ccoc2)c2ccccc12 [Example 3, [4-(3-Furoyl)-1-naphthlyloxy]-acetic acid], the LD50 ([2]; mice, oral, method of BLISS) was roughly 700 mg/kg, the “Diuretic Ability, 0 to 2 hours (ratio of urine volume treated/control)” value ([3]; 20 mg/kg p.o.) was 1.53 and the “Diuretic Ability, 0 to 4 hours (ratio of urine volume treated/control)” value ([3]; 20 mg/kg p.o.) was 1.31. For the same compound, the “Diuretic Ability, 0 to 2 hours (ratio of urine volume treated/control)” value ([3]; 50 mg/kg p.o.) was 1.48 and the “Diuretic Ability, 0 to 4 hours (ratio of urine volume treated/control)” value ([3]; 50 mg/kg p.o.) was 1.44.

In the case of O=C(O)COc1c(Br)cc(C(=O)c2cccs2)c2ccccc12 [Example 6], the response vs control in vivo at 50 mg/kg [1, 6] is reported as 116%.

For Cc1ccc(C(=O)c2ccc(OCC(=O)O)c3ccccc23)s1 [Example 7], the “Diuretic Ability, 0 to 2 hours (ratio of urine volume treated/control)” value ([3]; 50 mg/kg p.o.) was 2.01, the “Diuretic Ability, 0 to 4 hours (ratio of urine volume treated/control)” value ([3]; 50 mg/kg p.o.) was 1.70 and the response vs control in vivo at 100 mg/kg [1, 7] was 44%.

With O=C(O)COc1ccc(C(=O)c2ccsc2)c2ccccc12 [Example 10] the “Diuretic Ability, 0 to 2 hours (ratio of urine volume treated/control)” value ([3]; 200 mg/kg p.o.) was 1.38, the “Diuretic Ability, 0 to 4 hours (ratio of urine volume treated/control)” value ([3]; 200 mg/kg p.o.) was 1.77 and the response vs control in vivo at 100 mg/kg ([1]; 0.5 h, 30 minutes after injection of the colourant) was 53%.

Work on O=C(O)COc1ccc(C(=O)c2cc3ccccc3o2)c2ccccc12 [Example 12] yielded a response vs control in vivo at 50 mg/kg [1, 7] of 51%.

Compound O=C(O)CCOc1ccc(C(=O)c2cccs2)c2ccccc12 [Example 13] has an LD50 ([2]; mice, oral, method of BLISS) of roughly 700 mg/kg.

Compound O=C(O)CCOc1ccc(C(=O)c2ccco2)c2ccccc12 [Example 14] has a response vs control in vivo at 75 mg/kg ([1]; 1 h, dose 75 mg/kg, 60 minutes after injection of the colourant) of 80%.

For CCc1oc2ccccc2c1C(=O)c1cc(I)c(O)c(I)c1 [benziodarone, 2-ethyl-3-(4-hydroxy-3,5-diiodobenzoyl)-benzo[b]furane, reference compound], the LD50 ([2]; po) was 1400 mg/kg and the response vs control in vivo at 100 mg/kg [1, 5] was 53%.

With O=C(O)COc1ccc(C(=O)c2cccs2)c2ccccc12 [tri(hydroxymethyl)methylamine salt] the “solubility in aqueous medium” value [4] was “particularly useful because of its solubility in aqueous medium”.
